Results taken from patent publication US11660354B2, “Inhibitor-functionalized ultrasmall nanoparticles and methods thereof” (Memorial Sloan Kettering Cancer Center, priority 2016, dated 2023).
Read-outs that look alike come from different tables or passages of the source. One block for each molecule: values may come before it. Square brackets hold non-standard residues; d marks the D form. Sta = CC(C)C[C@H](N)[C@@H](O)CC(=O)O; Ahx = NCCCCCC(=O)O

Columns and labels:
[1] = test system: PC lesion and metastatic LNs; experiment: Clinical PET with ^68Ga-RM2 and ^68Ga-PSMA-11 in prostate cancer patients; format: in vivo; settings: patient with biochemical recurrence of PC
Description: FIGS. 20A-20B show a patient with biochemical recurrence of PC imaged with PSMA ligand ^68Ga-PSMA-11 and GRPr ligand ^68Ga-RM2. ^68Ga-PSMA-11 scan acquired 4 weeks after the ^68Ga-RM2 scan. Retroperitoneal LN metastases are better visualized on the GRPr scan than on the PSMA scan.

[2] = format: in vitro ADME; settings: serum
Method: PSMAi-NOTA-C′ dots (21 μmol) were radiolabeled with ^64Cu or ^177Lu (210 pmol) in NH4Ac buffer pH 5.5 at 70° C. for 20 min. The average radiolabeling yields were 98.6% and 99.3% radiochemical purities of 98% and 99.9%. Stabilities of the radiolabeled particle complexes were examined in water, saline, and serum (Table 1).
In the final step, PSMA and GRPr targeted C′ dots can be radiolabeled with ^64Cu and ^67Ga at various concentrations (˜0.3-300 nmol) in acetate buffer (pH 5.5) for 30 min and at 70° C. to obtain PSMAi-(^64Cu)NOTA-C′ dots and GRP-(^67Ga)DOTA-C′ dots. For ^89Zr labeling, as-synthesized PSMAi-DFO-C′ dot can be incubated with ^89Zr-oxalate at 37° C. for 30 min (pH 7-8). Radiolabeled PSMA-targeting C′ dots and GRPr-targeting C′ dots can be purified using PD-10 (G-25) size exclusion chromatography. For radiolabeling experiments, specific radiolabeling parameters can be determined for optimal radiolabeling efficiencies and high specific activities. Labeling can begin with the conditions shown to produce the highest specific activity. Quality control includes ITLC, HPLC, and cell-based receptor binding bioassays. Stability of radiolabeled C′ dots can be determined in H2O, PBS at 25° C. and mouse and human serum at 37° C.

LNCaP cells = experiment: Radiolabeled particle cell binding and internalization, LNCaP cells; format: cell-based
Method: (§1) Blocking studies show specific uptake.
(§2) PSMAi-(^64Cu)NOTA-C′ dots and GRP-(^177Lu)DOTA-C′ dots were examined for cell binding with LNCaP and PC3 cells (FIGS. 11A-11C). Cells were incubated with 100,000 CPM of PD10 purified radiolabeled C′ dots. PMPA and bombesin were used for blocking PSMAi and GRP radiolabeled C′ dots. After 3 PBS washes, the membrane surface-bound fraction was removed with 40 mM NaOAc (pH=4.5, 0.9% NaCl, 0.2% BSA), after which the cells were dissolved in NaOH to obtain internalized counts.

PC3 cells = experiment: Radiolabeled particle cell binding and internalization, PC3 cells; format: cell-based
Method: as §1, §2

TRAMP-C2 cell line = experiment: Binding of radiolabeled C′ dots to the TRAMP-C2 cell line; format: cell-based, mouse
Description: The advantages of the TRAMP model are the development of disease that mirrors human pathology in an immune competent mouse, coupled with the formation of LN and bone metastases. Disadvantages are that the biology/physiology of mouse prostate is not the same as the human organ. For example, the mouse prostate is not a single organ, as in human, but has 4 lobes, different from the single organ human prostate. The advantage of the TRAMP model is the ability to image metastatic disease and nodal metastases with PSMA- and GRPr-targeting C′ dots using PET and fluorescence-based multiplexing. Binding studies of PSMAi-(^67Ga)NOTA-C′ dots and GRP-(^177Lu)DOTA-C′ dots to the TRAMP-C2 cell line were examined (FIG. 17). The TRAMP-C2 cell line was derived from TRAMP prostate tumors. Both the PSMAi-(^67Ga)NOTA-C′ dots and GRP-(^177Lu)DOTA-C′ dots bound the TRAMP-C2 cell line. […] This model enables proof-of-concept studies to be conducted for multiplexed detection of nodal metastases using a cocktail of PSMAi-PEG-Cy5.5-C′ dots and GRP-PEG-CW800-C′ dots.

normal organ uptake [1]: very high RES and renal uptake
Molecule: O=C(O)CCc1ccc(O)c(CN(CCN(CC(=O)O)Cc2cc(CCC(=O)NCCCCCC(=O)NCCCC[C@H](NC(=O)N[C@@H](CCC(=O)O)C(=O)O)C(=O)O)ccc2O)CC(=O)O)c1 (68Ga complex, metal not drawn) [PSMA-11]

Molecule: GRP-(^177Lu)DOTA-C′ dots: GRP antagonist-DOTA peptide-functionalized C′ dots radiolabeled with ^177Lu ({Ac-Cys-Ahx-Ahx-K(DOTA)-4‑amino‑1‑carboxymethyl‑piperidine}-HQWAVGH[Sta]L-NH2; also: Cys thiol bound to maleimide-PEG-silane on silica nanoparticle, DOTA labelled with 177Lu)
percent radiolabeled C′ dot stability ([2]; human, 1 h): 99.9%
percent radiolabeled C′ dot stability ([2]; human, 4 h): 99.9%
percent radiolabeled C′ dot stability ([2]; human, 24 h): 99.8%
percent radiolabeled C′ dot stability ([2]; mouse, 1 h): 99.9%
percent radiolabeled C′ dot stability ([2]; mouse, 4 h): 99.8%
percent radiolabeled C′ dot stability ([2]; mouse, 24 h): 98.6%
cell binding, uptake and internalization (LNCaP cells): low levels of binding
cell binding, uptake and internalization (PC3 cells): bound PC3 cells, but were not efficiently internalized
binding in the presence of bombesin (PC3 cells; blocking with bombesin): blocked
binding to TRAMP-C2 cell line with RM2 peptide (TRAMP-C2 cell line; addition of an excess of GRPr targeting RM2 peptide): significantly reduced
binding to TRAMP-C2 cell line (TRAMP-C2 cell line; alone): bound
